Experimental data: patent US20240327397A1, “Pesticidally Active Fused Bicyclic Heteroaromatic Compounds” (SYNGENTA CROP PROTECTION AG, priority 2021, published 2024)

Assays:
Assay type in all cases: in vivo
[1] = system: Chilo suppressalis (Striped Rice Stemborer); experiment: Example B1: Chilo suppressalis, artificial diet in 24-well plates, L2 larvae; conditions: 144 h, application rate 200 ppm, 6 days after infestation, versus untreated, read-out: control (at least one of mortality, anti-feedant effect, growth inhibition)
Method: Example B1: Chilo suppressalis (Striped Rice Stemborer)
24-well microtiter plates with artificial diet were treated with aqueous test solutions prepared from 10'000 ppm DMSO stock solutions by pipetting. After drying, the plates were infested with L2 larvae (6-8 per well). The samples were assessed for mortality, anti-feeding effect, and growth inhibition in comparison to untreated samples 6 days after infestation. Control of Chilo suppressalis by a test sample is given when at least one of the categories mortality, anti-feedant effect, and growth inhibition is higher than the untreated sample.

[2] = system: Diabrotica Balteata (Corn Root Worm); experiment: Example B2: Diabrotica balteata, sprayed maize sprouts on agar, L2 larvae; conditions: 96 h, application rate 200 ppm, 4 days after infestation, versus untreated, read-out: effect in at least one of the two categories (mortality or growth inhibition)
Method: Example B2: Diabrotica Balteata (Corn Root Worm)
Maize sprouts placed onto an agar layer in 24-well microtiter plates were treated with aqueous test solutions prepared from 10'000 ppm DMSO stock solutions by spraying. After drying, the plates were infested with L2 larvae (6 to 10 per well). The samples were assessed for mortality and growth inhibition in comparison to untreated samples 4 days after infestation.

[3] = system: Plutella xylostella (Diamond Back Moth); experiment: Example B3: Plutella xylostella, artificial diet in 24-well plates, eggs; conditions: 192 h, application rate 200 ppm, 8 days after infestation, versus untreated, read-out: effect in at least one of the two categories (mortality or growth inhibition)
Method: Example B3: Plutella xylostella (Diamond Back Moth)
24-well microtiter plates with artificial diet were treated with aqueous test solutions prepared from 10'000 ppm DMSO stock solutions by pipetting. After drying, Plutella eggs were pipetted through a plastic stencil onto a gel blotting paper and the plate was closed with it. The samples were assessed for mortality and growth inhibition in comparison to untreated samples 8 days after infestation.

[4] = system: Spodoptera littoralis (Eqyptian Cotton Leaf Worm); experiment: Example B4: Spodoptera littoralis, sprayed cotton leaf discs, L1 larvae; conditions: foliar, 72 h, application rate 200 ppm, 3 days after infestation, versus untreated, read-out: control (at least one of mortality, anti-feedant effect, growth inhibition)
Method: Example B4: Spodoptera littoralis (Eqyptian Cotton Leaf Worm)
Cotton leaf discs were placed onto agar in 24-well microtiter plates and sprayed with aqueous test solutions prepared from 10'000 ppm DMSO stock solutions. After drying the leaf discs were infested with five L1 larvae. The samples were assessed for mortality, anti-feeding effect, and growth inhibition in comparison to untreated samples 3 days after infestation. Control of Spodoptera littoralis by a test sample is given when at least one of the categories mortality, anti-feedant effect, and growth inhibition is higher than the untreated sample.

[5] = system: Myzus persicae (Green Peach Aphid); experiment: Example B7: Myzus persicae, intrinsic activity, sucrose solution under Parafilm; conditions: 120 h, test rate 12 ppm, 5 days after infestation
Excerpt: Example B7: Myzus persicae (Green Peach Aphid). Intrinsic Activity
Test compounds prepared from 10'000 ppm DMSO stock solutions were applied by pipette into 24-well microtiter plates and mixed with sucrose solution. The plates were closed with a stretched Parafilm. A plastic stencil with 24 holes was placed onto the plate and infested pea seedlings were placed directly on the Parafilm. The infested plate was closed with a gel blotting paper and another plastic stencil and then turned upside down. The samples were assessed for mortality 5 days after infestation.

C[C@H](NC1=N[S@@](C)(=O)=Nc2c(Br)cc(Br)cc21)c1ncnn1-c1ccc(C#N)cn1 (single isomer, unassigned) [P6]
≥ 80%: percent control (mortality, anti-feedant effect or growth inhibition) at 200 ppm [1] | percent effect (mortality or growth inhibition) at 200 ppm [2] | percent effect (mortality or growth inhibition) at 200 ppm [3] | percent control (mortality, anti-feedant effect or growth inhibition) at 200 ppm [4]

C[C@H](NC1=N[S@](C)(=O)=Nc2c(Br)cc(Br)cc21)c1ncnn1-c1ccc(C#N)cn1 (single isomer, unassigned) [P7]
≥ 80%: percent control (mortality, anti-feedant effect or growth inhibition) at 200 ppm [1] | percent effect (mortality or growth inhibition) at 200 ppm [2] | percent effect (mortality or growth inhibition) at 200 ppm [3] | percent control (mortality, anti-feedant effect or growth inhibition) at 200 ppm [4]

C[C@H](NC1=N[S@](C)(=O)=Nc2ccc(Br)cc21)c1ncnn1-c1ccc(C#N)cn1 (single isomer, unassigned) [P8]
≥ 80%: percent control (mortality, anti-feedant effect or growth inhibition) at 200 ppm [1] | percent effect (mortality or growth inhibition) at 200 ppm [3] | percent control (mortality, anti-feedant effect or growth inhibition) at 200 ppm [4]

C[C@H](NC1=N[S@@](C)(=O)=Nc2ccc(Br)cc21)c1ncnn1-c1ccc(C#N)cn1 (single isomer, unassigned) [P9]
≥ 80%: percent control (mortality, anti-feedant effect or growth inhibition) at 200 ppm [1] | percent effect (mortality or growth inhibition) at 200 ppm [2] | percent effect (mortality or growth inhibition) at 200 ppm [3] | percent control (mortality, anti-feedant effect or growth inhibition) at 200 ppm [4]

CC(NC1=CS(C)(=O)=Nc2c1cc(C(F)(F)F)cc2C(F)(F)F)c1ncnn1-c1ncccn1 (centres unmarked) [P2, 3-methyl-3-oxo-N-[1-(2-pyrimidin-2-yl-1,2,4-triazol-3-yl)ethyl]-8,10-bis(trifluoromethyl)-3λ^6-thia-2-azabicyclo[4.4.0]deca-1(6),2,4,7,9-pentaen-5-amine]
≥ 80%: percent control (mortality, anti-feedant effect or growth inhibition) at 200 ppm [1] | percent effect (mortality or growth inhibition) at 200 ppm [2] | percent effect (mortality or growth inhibition) at 200 ppm [3] | percent control (mortality, anti-feedant effect or growth inhibition) at 200 ppm [4]

CC(NC1=CS(C)(=O)=Nc2c1cc(C(F)(F)F)cc2C(F)(F)F)c1ncnn1-c1ccc(C#N)cn1 (centres unmarked) [P3]
≥ 80%: percent control (mortality, anti-feedant effect or growth inhibition) at 200 ppm [1] | percent control (mortality, anti-feedant effect or growth inhibition) at 200 ppm [4]

CC(NC1=NS(C)(=O)=Nc2c(Br)cc(Br)cc21)c1ncnn1-c1ccc(C#N)cn1 (centres unmarked) [P4, 6-[5-[1-[(8,10-dibromo-3-methyl-3-oxo-3λ^6-thia-2,4-diazabicyclo[4.4.0]deca-1(10),2,4,6,8-pentaen-5-yl)amino]ethyl]-1,2,4-triazol-1-yl]pyridine-3-carbonitrile]
≥ 80%: percent control (mortality, anti-feedant effect or growth inhibition) at 200 ppm [1] | percent effect (mortality or growth inhibition) at 200 ppm [2] | percent effect (mortality or growth inhibition) at 200 ppm [3] | percent control (mortality, anti-feedant effect or growth inhibition) at 200 ppm [4]

C[C@H](NC1=NS(C)(=O)=Nc2c(Br)cc(Br)cc21)c1ncnn1-c1ccc(C#N)cn1 (stereo partly drawn) [P5, 6-[5-[(1S)-1-[(8,10-dibromo-3-methyl-3-oxo-3λ^6-thia-2,4-diazabicyclo[4.4.0]deca-1(10),2,4,6,8-pentaen-5-yl)amino]ethyl]-1,2,4-triazol-1-yl]pyridine-3-carbonitrile]
≥ 80%: percent control (mortality, anti-feedant effect or growth inhibition) at 200 ppm [1] | percent effect (mortality or growth inhibition) at 200 ppm [2] | percent effect (mortality or growth inhibition) at 200 ppm [3] | percent control (mortality, anti-feedant effect or growth inhibition) at 200 ppm [4]

C[C@H](NC1=NS(C)(=O)=Nc2c(Br)cc(Br)cc21)c1ncnn1-c1cnccn1 (stereo partly drawn) [P11, 8,10-dibromo-3-methyl-3-oxo-N-[(1S)-1-(2-pyrazin-2-yl-1,2,4-triazol-3-yl)ethyl]-3λ^6-thia-2,4-diazabicyclo[4.4.0]deca-1(6),2,4,7,9-pentaen-5-amine]
≥ 80%: percent control (mortality, anti-feedant effect or growth inhibition) at 200 ppm [1] | percent effect (mortality or growth inhibition) at 200 ppm [2] | percent effect (mortality or growth inhibition) at 200 ppm [3] | percent control (mortality, anti-feedant effect or growth inhibition) at 200 ppm [4]

C[C@H](NC1=NS(C)(=O)=Nc2c(Cl)cc(C(F)(F)F)cc21)c1nccnc1-c1cnccn1 (stereo partly drawn) [P12, 10-chloro-3-methyl-3-oxo-N-[(1S)-1-(3-pyrazin-2-ylpyrazin-2-yl)ethyl]-8-(trifluoromethyl)-3λ^6-thia-2,4-diazabicyclo[4.4.0]deca-1(6),2,4,7,9-pentaen-5-amine]
≥ 80%: percent effect (mortality or growth inhibition) at 200 ppm [2] | percent effect (mortality or growth inhibition) at 200 ppm [3] | percent control (mortality, anti-feedant effect or growth inhibition) at 200 ppm [4]

C[C@H](NC1=NS(C)(=O)=Nc2c(Cl)cc(C(F)(F)F)cc21)c1ncnn1-c1ccc(C#N)cn1 (some centres unmarked) [P15]
≥ 80%: percent effect (mortality or growth inhibition) at 200 ppm [2] | percent effect (mortality or growth inhibition) at 200 ppm [3] | percent control (mortality, anti-feedant effect or growth inhibition) at 200 ppm [4]

C[C@H](NC1=NS(C)(=O)=Nc2c1cc(Cl)cc2C(F)(F)F)c1ncnn1-c1ccc(C#N)cn1 (some centres unmarked) [P16]
≥ 80%: percent control (mortality, anti-feedant effect or growth inhibition) at 200 ppm [1] | percent effect (mortality or growth inhibition) at 200 ppm [2] | percent effect (mortality or growth inhibition) at 200 ppm [3] | percent control (mortality, anti-feedant effect or growth inhibition) at 200 ppm [4] | mortality at 12 ppm [5]

C[C@H](NC1=NS(C)(=O)=Nc2c1cc(Cl)cc2C(F)(F)F)c1ncnn1-c1cnccn1 (stereo partly drawn) [P17, 8-chloro-3-methyl-3-oxo-N-[(1S)-1-(2-pyrazin-2-yl-1,2,4-triazol-3-yl)ethyl]-10-(trifluoromethyl)-3λ^6-thia-2,4-diazabicyclo[4.4.0]deca-1(6),2,4,7,9-pentaen-5-amine]
≥ 80%: percent effect (mortality or growth inhibition) at 200 ppm [2] | percent effect (mortality or growth inhibition) at 200 ppm [3] | percent control (mortality, anti-feedant effect or growth inhibition) at 200 ppm [4]

C[C@H](NC1=NS(C)(=O)=Nc2c1cc(Cl)cc2C(F)(F)F)c1ncnn1-c1ncccn1 (stereo partly drawn) [P18, 8-chloro-3-methyl-3-oxo-N-[(1S)-1-(2-pyrimidin-2-yl-1,2,4-triazol-3-yl)ethyl]-10-(trifluoromethyl)-3λ^6-thia-2,4-diazabicyclo[4.4.0]deca-1(6),2,4,7,9-pentaen-5-amine]
≥ 80%: percent control (mortality, anti-feedant effect or growth inhibition) at 200 ppm [1] | percent effect (mortality or growth inhibition) at 200 ppm [2] | percent effect (mortality or growth inhibition) at 200 ppm [3] | percent control (mortality, anti-feedant effect or growth inhibition) at 200 ppm [4] | mortality at 12 ppm [5]

C[C@H](NC1=NS(C)(=O)=Nc2c1cc(Cl)cc2C(F)(F)F)c1nccnc1-c1cnccn1 (stereo partly drawn) [P19, 8-chloro-3-methyl-3-oxo-N-[(1S)-1-(3-pyrazin-2-ylpyrazin-2-yl)ethyl]-10-(trifluoromethyl)-3λ^6-thia-2,4-diazabicyclo[4.4.0]deca-1(6),2,4,7,9-pentaen-5-amine]
≥ 80%: percent control (mortality, anti-feedant effect or growth inhibition) at 200 ppm [1] | percent effect (mortality or growth inhibition) at 200 ppm [2] | percent effect (mortality or growth inhibition) at 200 ppm [3] | percent control (mortality, anti-feedant effect or growth inhibition) at 200 ppm [4]

C[C@@H](c1ncnn1-c1cnccn1)N(C)C1=NS(C)(=O)=Nc2c1cc(Cl)cc2C(F)(F)F (stereo partly drawn) [P20, 8-chloro-N,3-dimethyl-3-oxo-N-[(1S)-1-(2-pyrazin-2-yl-1,2,4-triazol-3-yl)ethyl]-10-(trifluoromethyl)-3λ^6-thia-2,4-diazabicyclo[4.4.0]deca-1(6),2,4,7,9-pentaen-5-amine]
≥ 80%: percent effect (mortality or growth inhibition) at 200 ppm [2] | percent effect (mortality or growth inhibition) at 200 ppm [3] | percent control (mortality, anti-feedant effect or growth inhibition) at 200 ppm [4]
